Source: patent publication US20010049373A1, “Materials and methods for killing nematodes and nematode eggs” (priority 2000, published 2001)

Legend:
[1] = tested on: Caenorhabditis elegans; experiment: C. elegans L1 larvae dose-response, 5 day visual viability score (Examples 2 and 7); assay type: in vivo; design: key: Dead: only stiff L1s (no movement); Dead (L4): worms are dead, but at a later larval stage; majority of worms are L1 (based on size); majority of worms are L2 (based on size); majority of worms are L3 (based on size); majority of worms are L4 (based on size); AD: majority of worms are adult; #AD: 5 adult worms or less; B!: sterile (0-25 progeny); B: low broodsize (25-100 progeny); ˜B: moderate broodsize (100-250 progeny); <: reduced broodsize (250-500 progeny); OK: no effect (˜1000+ progeny); details: day 5, Table 3
In short: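 Twenty L1 larvae per well in NGM with E. coli HB101 were exposed to six 3-fold dilutions from 70 μM to 0.3 μM, 1.4% DMSO final, at 20° C. Day-5 viability was scored visually under a dissecting microscope by developmental stage, adult count and brood size.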

[2] = tested on: Caenorhabditis elegans; experiment: HTS runs (initial and follow-up): mOD, % Run and visual score (Table 3); assay type: in vivo
Protocol: The nematicidal activity of anthelmintic Compositions 48-118 were determined in accordance with the procedure outlined in Example 2.

CCC1CCCCN1c1cc(Oc2ccc3oc4ccccc4c3c2)ncn1 (stereo not drawn) [AKC 109]
5 Day Visual Score V6 ([1]; 0.3 μM (procedure of Example 2)): B (low broodsize (25-100 progeny))
5 Day Visual Score V2 ([1]; 23.3 μM (procedure of Example 2)): L1
5 Day Visual Score V1 ([1]; 70 μM (procedure of Example 2)): L1
Follow-up HTS Run % Run ([2]; Follow-up HTS Run): 121%
Follow-up HTS Run Visual Score ([2]; Follow-up HTS Run): L4/AD/B!
Follow-up HTS Run mOD ([2]; Follow-up HTS Run): 163 mOD
Initial HTS Run % Run ([2]; Initial HTS Run): 132%
Initial HTS Run Visual Score ([2]; Initial HTS Run): 1AD/B!
Initial HTS Run mOD ([2]; Initial HTS Run): 258 mOD
